Results as given in paper PMC3086806, “Mining a Cathepsin Inhibitor Library for New Antiparasitic Drug Leads” (PLoS Neglected Tropical Diseases, 2011).
Like-named read-outs stand apart in the source and are kept apart here.

Legend:
human cathepsin B = target: human cathepsin B; design: method as in data provided by Celera Genomics; conditions: historical data; ref data provided by Celera Genomics; read-out: Ki catB; cited from earlier work
human cathepsin L = target: human cathepsin L; design: method as in data provided by Celera Genomics; conditions: historical data; ref data provided by Celera Genomics; read-out: Ki catL; cited from earlier work
[1] = Jurkat cell cytotoxicity assay; assay type: cell-based; conditions: human, Jurkat cells (clone E6-1), read-out: Cytotoxicity (% inhibition at 10 µM) Jurkat cells
Method: Jurkat cells (clone E6-1) were grown in complete RPMI-1640 medium containing 10% FBS, 50 U/mL penicillin and 50 µg/mL streptomycin (Invitrogen) at 37°C under a humidified atmosphere and 5% CO2. For cytotoxicity testing, cells were diluted to 1×10^5 per ml in complete RPMI-1640 medium. Test compound stocks were prepared in 100% DMSO and screened at 10 µM against cells (1×10^4 cells per well) in sterile Greiner 96-well flat white opaque culture plates (0.5% final DMSO concentration). The 0% inhibition control wells contained 0.5% DMSO while 100% inhibition control wells contained 40 µM staurosporine. After compound addition, plates were incubated for 40 hr at 37°C. At the end of the incubation period, 50 µL of CellTiter-Glo™ reagent (Promega Inc., Madison, WI, USA) was added to each well and plates were placed on an orbital shaker at room temperature for 2 min to induce lysis. After a further 10 min incubation without shaking to stabilize the signal, the ATP-bioluminescence of each well was determined using an Analyst HT plate reader (Molecular Devices, Sunnyvale, CA, USA). Calculations of percentage inhibition and IC50 were performed similar to those in the T. brucei brucei assay.

[2] = tested on: W2-strain P. falciparum parasites; assay: P. falciparum growth inhibition assay; assay type: cell-based, Plasmodium falciparum; conditions: for GI50: Plasmodium falciparum, read-out: GI50 P. falc. W2
Method: The growth inhibition assay for P. falciparum was conducted as described previously. W2-strain P. falciparum parasites (1% parasitemia, 2% hematocrit) were cultured at 37°C in human red blood cells under the atmosphere of 3% O2, 5% CO2 balance N2 in 0.2 mL of per well in medium RPMI-1640 supplemented with 10% human serum in duplicate 96-well flat bottom culture plates in the presence of inhibitors. Tested compounds were serially diluted 1∶3 in the range 10,000 – 4.6 nM, with maximum DMSO concentration of 0.1%. Following 48 hours of incubation, the medium was removed and the cells were fixed in 2% formaldehyde in PBS. Parasite growth was evaluated by flow cytometry on a FACsort (Becton Dickinson) equipped with AMS-1 loader (Cytek Development) after staining with 1 nM DNA dye YOYO-1(Molecular Probes) in 100 mM NH4Cl, 0.8% NaCl. Parasitemias were determined from dot plots (forward scatter vs. fluorescence) using […] software (Becton Dickinson). IC50 values for growth inhibition were determined from plots of percentage control parasitemia over inhibitor concentration using GraphPad Prism software.

falcipain-3 = target: T1, falcipain-3 (Plasmodium falciparum, UniProt Q8IIL0); assay: Falcipain-3 protease inhibition assay (Z-Leu-Arg-AMC); assay type: biochemical
T1 construct: made in house
T1 sequence (Q8IIL0 243-492): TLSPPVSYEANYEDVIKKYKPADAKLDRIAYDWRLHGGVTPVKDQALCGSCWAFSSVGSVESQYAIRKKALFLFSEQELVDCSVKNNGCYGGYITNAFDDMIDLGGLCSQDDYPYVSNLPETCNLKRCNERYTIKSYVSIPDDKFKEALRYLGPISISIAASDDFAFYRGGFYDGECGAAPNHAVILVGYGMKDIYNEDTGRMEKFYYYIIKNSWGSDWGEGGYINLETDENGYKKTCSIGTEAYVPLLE
Method: (§1) Recombinant cruzain, rhodesain, TbCatB, falcipain-2 and falcipain-3 were expressed as described previously, [39], [40], [41], [42]. Inhibitor stock solutions were prepared in DMSO and screened at 0.1 µM for cruzain and rhodesain, 1 µM for TbCatB and 50 nM for falcipain-3 (0.5% DMSO in assay). […] Protease inhibition assays for cruzain and rhodesain were carried out in 96 well plate format as described previously. Cruzain (4 nM), rhodesain (4 nM) or TbCatB (258 nM) was incubated with test compound in 100 mM sodium acetate, pH 5.5, containing 5 mM DTT and 0.01% Triton X-100 (buffer A), for 5 min at room temperature (the higher concentration of TbCatB was required due to its lower intrinsic activity against the fluorogenic substrate). Then buffer A containing Z-Phe-Arg-AMC (Bachem) was added to enzyme-compound mixture to give 10 µM substrate in a final assay volume of 200 µL. The rate of free AMC release was measured at excitation and emission wavelengths of 355 and 460 nm, respectively, with a microtiter plate spectrofluorimeter (SpectraMax M5, Molecular Devices) for 3 min. Percentage inhibition of test compound was calculated relative to the DMSO control (0% inhibition control). IC50 values were determined with Prism 4 software (GraphPad, San Diego, CA) using sigmoidal dose-response variable slope model.
(§2) Protease inhibition assays for falcipain-2 and falcipain-3 were carried out in 96 well plate format as described previously, [43] with modification for end-point readout. Falcipain-2 (21 nM) or falcipain-3 (78 nM) was incubated with test compound for 10 min at room temperature in 200 mM sodium acetate, pH 6, 10 mM DTT and 3.6% glycerol and 0.01% Triton X-100 (buffer B). Then buffer B containing Z-Leu-Arg-AMC (Bachem) was added to the enzyme-compound mixture to give 25 µM substrate in a final assay volume of 200 µL. After 15 min, 50 µL of 5 M acetic acid was added to each well to stop the reaction. End-point fluorescence was read in a spectrofluorimeter as above. The 0% inhibition control wells contained DMSO while 100% inhibition control wells contained 50 µM E-64 (Sigma). Percentage inhibition of test compound was calculated relative to the controls and IC50 curve fitting was performed with Prism 4 software as above.

falcipain-2 = target: T2, falcipain-2 (Plasmodium falciparum, UniProt Q8I6U4); assay: Falcipain-2 protease inhibition assay (Z-Leu-Arg-AMC); assay type: biochemical
T2 construct: made in house
T2 sequence (Q8I6U4 244-484): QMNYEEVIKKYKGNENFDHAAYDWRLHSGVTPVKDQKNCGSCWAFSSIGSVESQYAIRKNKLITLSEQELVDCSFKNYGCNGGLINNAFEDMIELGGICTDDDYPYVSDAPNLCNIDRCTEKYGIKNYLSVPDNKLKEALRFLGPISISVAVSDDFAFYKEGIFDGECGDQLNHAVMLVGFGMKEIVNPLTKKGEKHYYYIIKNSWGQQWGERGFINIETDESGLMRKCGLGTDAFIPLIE
Method: as §1, §2

Compound	Ki (human cathepsin B) [nM]	Ki (human cathepsin L) [nM]	cytotoxicity at 40 h, 10 µM [1] [%]	GI50 ([2]; cultured W2 strain, 48 hours) [nM]	IC50 (falcipain-3; read-out: IC50 falcipain-3) [nM]	IC50 (falcipain-2) [nM]	GI50 ([2]; W2, 48 h) [nM]	IC50 (falcipain-3) [nM]	GI50 P. falc. W2 ([2]; cultured W2 strain, 48 hours)
CC(C)CC(NC(=O)N1CCOCC1)C(=O)NC(C=CS(=O)(=O)c1ccccc1)CCc1ccc(O)cc1 (stereo not shown) [Compound 18a]	440	3	< 5	20	40	7.6	–	–	–
CC(C)CC(NC(=O)N1CCOCC1)C(=O)NC(C=CS(=O)(=O)c1ccccc1)CCc1ccccc1 (stereo not shown) [Compound 18b]	210	–	< 5	–	–	3.6	40	29	–
CCCCC(NC(=O)C(CC(C)C)NC(C)=O)C(=O)c1nc2ccccc2o1 (stereo not shown) [Compound 19c]	920	610	< 5	4800	17	66	–	–	–
N#CC1(NC(=O)C(CC2CCCCC2)NC(=O)c2cccc(-c3cccc(S(N)(=O)=O)c3)c2)CCS(=O)(=O)CC1 (stereo not shown) [Compound 20]	–	–	< 5	170	11	7.5	–	–	sub-micromolar
